Data published in paper PMC9203742 (Nature Communications, 2022).
Values joined by “and” are separate entries in the source; they are usually repeats but may differ in a detail not shown here. Equal values may be shown once.

Key:
PC12 cells [1] = experiment: NGF-induced neurite outgrowth in differentiated PC12 cells; type: cell-based; parameters: neurite outgrowth, individual values #1-#20 (Fig.4b): unit not given here; details: [Pd(bpy)] 100 µM; differentiated PC12 cells
Description: After incubation for 3 days, PC12 cells bearing neurites were randomly selected, and the length of the longest neurite in each cell was measured using ImageJ package Fiji.

[2] = tested on: HEK293 cells, vector control; experiment: Fura-2 Ca2+ imaging in HEK293 cells transfected with control vector (Vec); type: cell-based; details: single-cell values #1-#20
[3] = tested on: mGlu1 construct not given; experiment: Fura-2 Ca2+ imaging in HEK293 cells, source data Suppl Fig1, left group (c0-c8); construct not given; type: cell-based, rat; details: single-cell values, cells #15-#20; left group of third block
Description: (§1) Supplement 41467_2022_30828_MOESM6_ESM.zip/Ojima et al_source data_Suppl Fig.xlsx, sheet "Suppl Fig1" | column: Glu; NiCl2; CuCl2; ZnCl2; CdCl2; Na2PdCl2; Pd(bpy)

mGlu1 A59H/A265H mutant = target: T1, mGlu1 A59H/A265H mutant (Rattus norvegicus, UniProt P23385, A265H/A59H); experiment: Fura-2 Ca2+ imaging in HEK293 cells expressing mGlu1 A59H/A265H; type: cell-based; details: single-cell values
T1 construct: expressed in transfected cells; host or cells: HEK293
T1 sequence (P23385 19-1199 A59H/A265H): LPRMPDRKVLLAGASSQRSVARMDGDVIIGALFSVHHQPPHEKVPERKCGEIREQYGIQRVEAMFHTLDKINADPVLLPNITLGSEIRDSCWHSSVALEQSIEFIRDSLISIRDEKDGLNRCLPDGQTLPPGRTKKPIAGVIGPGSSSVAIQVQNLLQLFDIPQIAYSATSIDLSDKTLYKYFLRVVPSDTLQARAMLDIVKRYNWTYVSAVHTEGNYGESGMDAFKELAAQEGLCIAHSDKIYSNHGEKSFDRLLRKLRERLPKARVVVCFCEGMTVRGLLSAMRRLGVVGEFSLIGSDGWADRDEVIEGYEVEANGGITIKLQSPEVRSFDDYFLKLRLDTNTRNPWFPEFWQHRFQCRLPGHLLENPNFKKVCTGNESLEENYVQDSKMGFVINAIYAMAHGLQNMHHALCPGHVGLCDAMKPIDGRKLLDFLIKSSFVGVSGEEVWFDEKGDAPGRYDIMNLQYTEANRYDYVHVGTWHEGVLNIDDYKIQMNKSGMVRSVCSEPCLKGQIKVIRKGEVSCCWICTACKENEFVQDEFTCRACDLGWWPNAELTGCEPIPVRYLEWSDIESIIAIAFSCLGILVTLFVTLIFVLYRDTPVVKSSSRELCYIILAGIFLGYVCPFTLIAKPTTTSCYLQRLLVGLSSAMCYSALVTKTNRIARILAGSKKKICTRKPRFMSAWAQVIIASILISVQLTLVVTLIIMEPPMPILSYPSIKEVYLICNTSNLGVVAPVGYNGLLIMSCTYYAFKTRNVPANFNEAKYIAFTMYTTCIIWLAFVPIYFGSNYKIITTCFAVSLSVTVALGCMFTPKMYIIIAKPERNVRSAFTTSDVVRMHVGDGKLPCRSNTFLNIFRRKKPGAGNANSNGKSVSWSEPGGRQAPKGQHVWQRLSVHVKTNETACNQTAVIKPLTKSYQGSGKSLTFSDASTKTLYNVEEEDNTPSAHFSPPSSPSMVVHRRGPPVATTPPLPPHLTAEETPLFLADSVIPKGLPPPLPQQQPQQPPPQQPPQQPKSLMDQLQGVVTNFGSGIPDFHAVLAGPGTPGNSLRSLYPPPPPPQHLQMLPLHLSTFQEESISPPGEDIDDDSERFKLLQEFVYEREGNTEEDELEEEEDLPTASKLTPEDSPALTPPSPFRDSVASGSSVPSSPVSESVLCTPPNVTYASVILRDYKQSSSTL

[4] = tested on: mGlu1 construct not given; experiment: Fura-2 Ca2+ imaging in HEK293 cells, source data Suppl Fig1, middle group (c9-c17); construct not given; type: cell-based, rat; details: single-cell values, cells #15-#20; middle group of third block
Description: as §1

mGlu1 A59H/G266H mutant = target: T2, mGlu1 A59H/G266H mutant (Rattus norvegicus, UniProt P23385, A59H/G266H); experiment: Fura-2 Ca2+ imaging in HEK293 cells expressing mGlu1 A59H/G266H; type: cell-based; details: single-cell values
T2 construct: expressed in transfected cells; host or cells: HEK293
T2 sequence (P23385 19-1199 A59H/G266H): as the sequence (P23385 19-1199 A59H/A265H) above, with H247A, G248H counted along it

[5] = tested on: mGlu1 construct not given; experiment: Fura-2 Ca2+ imaging in HEK293 cells, source data Suppl Fig1, right group (c18-c26); construct not given; type: cell-based, rat; details: single-cell values, cells #15-#20; right group of third block
Description: as §1

PC12 cells [6] = experiment: Cell proliferation assay of undifferentiated PC12 cells; details: for cell proliferation, Ave (Fig.4c): average of #1-#3
primary cortical neurons = experiment: Fura-2 Ca2+ imaging (abnormal Ca2+ response) in cultured cortical neurons

## O=[N+]([O-])[O-].O=[N+]([O-])[O-].[Pd+2].c1ccc(-c2ccccn2)nc1 [Pd(bpy), Pd(bpy)(NO3)2]
PC12 cells [1]
  neurite outgrowth, individual values #1-#20 (Fig.4b): 136.698 and 130.77 and 122.681 and 121.338 and 121.125 and 116.924 and 109.267 and 109.255 and 105.042 and 102.225 and 101.456 and 94.5391 and 93.196 and 186.64 and 184.25 and 163.439 and 159.066 and 147.882 and 142.225 and 138.024
[2]
  Ca2+ response of individual cells (source data Suppl Fig1), Vec: -0.004731 and 0.3238 and -0.02602 and 0.02754 and -0.0031 and 0.006285 and -0.02257 and 0.004254 and 0.003354 and -0.004338 and -0.001023 and 0.0058 and -0.01141 and 0.05108 and 0.0005846 and 0.297 and 0.004723 and 0.01628 and 0.03037
[3]
  Ca2+ response of individual cells (source data, sheet Suppl Fig1): 0.505 and 0.8787 and 1.066 and 0.2405 and 0.9566 and 0.7627
mGlu1 A59H/A265H mutant
  Ca2+ response of individual cells (source data Suppl Fig1), A59H/A265H: -0.002885 and -0.009254 and 0.08719 and 0.008869 and -0.009738 and 0.003808 and 0.004285 and 0.02012 and -0.02372 and -0.01536 and -0.009285 and -0.02246 and 0.01085 and 0.1127
[4]
  Ca2+ response of individual cells (source data, sheet Suppl Fig1): 0.04373 and -0.04935 and -0.001077 and -0.04196 and -0.007292 and 0.01256
mGlu1 A59H/G266H mutant
  Ca2+ response of individual cells (source data Suppl Fig1), A59H/G266H: 0.2879 and 0.01529 and 0.1021 and -0.0047 and 0.3807 and 0.03304 and 0.0004923 and 0.02376 and -0.0301 and -0.02225 and 0.0004846 and -0.005677 and 0.7275 and 0.6736
[5]
  Ca2+ response of individual cells (source data, sheet Suppl Fig1): 0.001923 and 0.0116 and 0.02873 and 0.01569 and 0.04602 and 0.003608
PC12 cells [6]; 30 μM
  Cell growth: clearly suppressed
PC12 cells [6]; Pd complex 1 µM
  cell proliferation, single experiments #1-#3 (Fig.4c): 1.5318 and 0.8604 and 0.8836
  cell proliferation, Ave (Fig.4c): 1.092
PC12 cells [6]; Pd complex 3 µM
  cell proliferation, single experiments #1-#3 (Fig.4c): 1.071 and 0.9613 and 0.8889
  cell proliferation, Ave (Fig.4c): 0.9739
PC12 cells [6]; Pd complex 10 µM
  cell proliferation, single experiments #1-#3 (Fig.4c): 1.234 and 0.8888 and 0.7605
  cell proliferation, Ave (Fig.4c): 0.961
PC12 cells [6]; Pd complex 30 µM
  cell proliferation, single experiments #1-#3 (Fig.4c): 0.9447 and 0.7842 and 0.619
  cell proliferation, Ave (Fig.4c): 0.7826
PC12 cells [6]; Pd complex 100 µM
  cell proliferation, Ave (Fig.4c): 0.07957
Primary cortical neurons; 1 µM Pd complex
  abnormal Ca2+ response, ave (Fig.4d): 0.03652
Primary cortical neurons; 3 µM Pd complex
  abnormal Ca2+ response, ave (Fig.4d): -0.0001233
Primary cortical neurons; 10 μM
  [Ca2+]i elevation (abnormal Ca2+ response): gradual [Ca^2+]i elevation was observed
Primary cortical neurons; 10 µM Pd complex
  abnormal Ca2+ response, ave (Fig.4d): 0.1988
Primary cortical neurons; 30 μM
  [Ca2+]i elevation (abnormal Ca2+ response): more prominent
Primary cortical neurons; 30 µM Pd complex
  abnormal Ca2+ response, ave (Fig.4d): 2.468
Primary cortical neurons; 100 µM Pd complex
  abnormal Ca2+ response, ave (Fig.4d): 3.162
Primary cortical neurons; 300 µM Pd complex
  abnormal Ca2+ response, ave (Fig.4d): 3.458
